# Structures can show the parent of a compound that is named as a salt.
# What was measured:
# Type in all cases: biochemical
# Settings in all cases: Caliper assay at 1 mM ATP
# JAK1 = JAK1 (Homo sapiens (Human), UniProt P23458); assay: JAK Caliper Enzyme Assay at 1 mM ATP (JAK1)
# Method: (§1) JAK Caliper Enzyme Assay at 1 mM ATP
# (§2) Test article was solubilized in dimethyl sulfoxide (DMSO) to a stock concentration of 30 mM. An 11-point half log dilution series was created in DMSO with a top concentration of 600 μM. […] The compound plates were diluted 1 to 60 resulting in a top final assay compound concentration of 10 μM and a 2% DMSO concentration.
# (§3) Test article and assay controls were added to a 384-well plate. Reaction mixtures contained 20 mM HEPES, pH 7.4, 10 mM magnesium chloride, 0.01% bovine serum albumin (BSA), 0.0005% Tween 20, 1 mM ATP and 1 μM peptide substrate. […] Enzyme concentrations and incubation times were optimized for each new enzyme preps and were modified slightly over time to ensure 20%-30% phosphorylation. The assays were stopped with a final concentration of 10 mM EDTA, 0.1% Coating Reagent and 100 mM HEPES, pH=7.4. The assay plates were placed on a Caliper Life Science Lab Chip 3000 (LC3000) instrument, and each well was sampled using appropriate separation conditions to measure the unphosphorylated and phosphorylated peptide.
# JAK3 = JAK3 (Homo sapiens (Human), UniProt P52333); assay: JAK Caliper Enzyme Assay at 1 mM ATP (JAK3)
# Sequence of JAK3 (P52333 whole entry, species assumed): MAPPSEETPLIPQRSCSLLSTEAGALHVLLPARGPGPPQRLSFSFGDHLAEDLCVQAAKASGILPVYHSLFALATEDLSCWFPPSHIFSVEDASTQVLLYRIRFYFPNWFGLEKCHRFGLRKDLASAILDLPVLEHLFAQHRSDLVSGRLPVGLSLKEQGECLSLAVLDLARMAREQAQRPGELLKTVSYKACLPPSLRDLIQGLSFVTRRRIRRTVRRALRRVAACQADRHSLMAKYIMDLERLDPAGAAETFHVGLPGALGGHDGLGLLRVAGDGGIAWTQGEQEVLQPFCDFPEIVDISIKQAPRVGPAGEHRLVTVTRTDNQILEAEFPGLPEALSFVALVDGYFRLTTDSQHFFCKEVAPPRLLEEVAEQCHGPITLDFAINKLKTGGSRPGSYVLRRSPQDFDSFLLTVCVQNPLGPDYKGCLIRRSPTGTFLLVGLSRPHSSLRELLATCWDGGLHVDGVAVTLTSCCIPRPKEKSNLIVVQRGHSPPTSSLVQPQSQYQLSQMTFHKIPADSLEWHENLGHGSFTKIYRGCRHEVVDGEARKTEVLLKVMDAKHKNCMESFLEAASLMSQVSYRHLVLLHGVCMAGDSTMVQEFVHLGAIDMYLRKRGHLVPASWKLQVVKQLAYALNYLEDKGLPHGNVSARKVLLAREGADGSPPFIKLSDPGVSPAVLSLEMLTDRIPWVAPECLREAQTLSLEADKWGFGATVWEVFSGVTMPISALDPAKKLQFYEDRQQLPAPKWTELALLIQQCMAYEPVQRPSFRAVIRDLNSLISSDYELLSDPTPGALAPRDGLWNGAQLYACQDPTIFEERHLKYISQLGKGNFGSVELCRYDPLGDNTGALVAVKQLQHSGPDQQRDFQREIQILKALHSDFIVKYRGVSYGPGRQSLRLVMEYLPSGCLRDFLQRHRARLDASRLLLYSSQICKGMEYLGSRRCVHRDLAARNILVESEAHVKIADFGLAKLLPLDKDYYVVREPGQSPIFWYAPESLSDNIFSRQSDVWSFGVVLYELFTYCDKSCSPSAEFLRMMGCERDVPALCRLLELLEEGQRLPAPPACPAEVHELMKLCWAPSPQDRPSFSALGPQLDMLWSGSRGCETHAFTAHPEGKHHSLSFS
# Method: as §1, §2, §3
# TYK2 = TYK2 (Homo sapiens (Human), UniProt P29597); assay: JAK Caliper Enzyme Assay at 1 mM ATP (TYK2)
# Sequence of TYK2 (P29597 whole entry, species assumed): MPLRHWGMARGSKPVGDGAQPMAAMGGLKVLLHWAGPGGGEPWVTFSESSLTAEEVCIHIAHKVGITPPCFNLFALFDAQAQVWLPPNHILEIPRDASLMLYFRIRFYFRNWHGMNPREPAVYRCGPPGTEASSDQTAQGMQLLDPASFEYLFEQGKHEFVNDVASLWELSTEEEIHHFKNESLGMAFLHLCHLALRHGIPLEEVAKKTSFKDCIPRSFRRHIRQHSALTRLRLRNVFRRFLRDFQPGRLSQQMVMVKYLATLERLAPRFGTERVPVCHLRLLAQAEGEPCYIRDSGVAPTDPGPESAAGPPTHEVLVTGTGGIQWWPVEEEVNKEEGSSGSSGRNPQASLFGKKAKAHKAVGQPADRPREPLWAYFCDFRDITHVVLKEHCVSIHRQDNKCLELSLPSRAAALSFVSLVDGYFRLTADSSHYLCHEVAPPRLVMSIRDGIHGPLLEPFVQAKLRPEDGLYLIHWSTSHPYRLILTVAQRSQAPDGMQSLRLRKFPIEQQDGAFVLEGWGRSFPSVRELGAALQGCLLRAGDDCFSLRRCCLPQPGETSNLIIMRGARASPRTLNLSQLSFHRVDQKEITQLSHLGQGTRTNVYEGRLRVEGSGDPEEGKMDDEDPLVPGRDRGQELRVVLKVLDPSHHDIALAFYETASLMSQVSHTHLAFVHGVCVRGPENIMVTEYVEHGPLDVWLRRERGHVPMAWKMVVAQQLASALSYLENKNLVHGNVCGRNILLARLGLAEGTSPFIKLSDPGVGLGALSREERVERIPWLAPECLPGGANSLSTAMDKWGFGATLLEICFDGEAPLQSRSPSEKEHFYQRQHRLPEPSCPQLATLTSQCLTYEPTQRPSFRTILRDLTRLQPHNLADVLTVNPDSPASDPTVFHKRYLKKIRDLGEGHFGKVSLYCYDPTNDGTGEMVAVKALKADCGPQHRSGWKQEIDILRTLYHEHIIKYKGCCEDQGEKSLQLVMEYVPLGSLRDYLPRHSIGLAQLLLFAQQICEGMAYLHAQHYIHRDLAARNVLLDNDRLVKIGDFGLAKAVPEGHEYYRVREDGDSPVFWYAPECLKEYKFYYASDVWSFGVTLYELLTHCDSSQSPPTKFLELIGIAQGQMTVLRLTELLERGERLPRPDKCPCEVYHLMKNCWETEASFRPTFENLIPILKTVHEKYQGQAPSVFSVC
# Method: as §1, §2, §3
# JAK2 = JAK2 (Homo sapiens (Human), UniProt O60674); assay: JAK Caliper Enzyme Assay at 1 mM ATP (JAK2)
# Sequence of JAK2 (O60674 whole entry, species assumed): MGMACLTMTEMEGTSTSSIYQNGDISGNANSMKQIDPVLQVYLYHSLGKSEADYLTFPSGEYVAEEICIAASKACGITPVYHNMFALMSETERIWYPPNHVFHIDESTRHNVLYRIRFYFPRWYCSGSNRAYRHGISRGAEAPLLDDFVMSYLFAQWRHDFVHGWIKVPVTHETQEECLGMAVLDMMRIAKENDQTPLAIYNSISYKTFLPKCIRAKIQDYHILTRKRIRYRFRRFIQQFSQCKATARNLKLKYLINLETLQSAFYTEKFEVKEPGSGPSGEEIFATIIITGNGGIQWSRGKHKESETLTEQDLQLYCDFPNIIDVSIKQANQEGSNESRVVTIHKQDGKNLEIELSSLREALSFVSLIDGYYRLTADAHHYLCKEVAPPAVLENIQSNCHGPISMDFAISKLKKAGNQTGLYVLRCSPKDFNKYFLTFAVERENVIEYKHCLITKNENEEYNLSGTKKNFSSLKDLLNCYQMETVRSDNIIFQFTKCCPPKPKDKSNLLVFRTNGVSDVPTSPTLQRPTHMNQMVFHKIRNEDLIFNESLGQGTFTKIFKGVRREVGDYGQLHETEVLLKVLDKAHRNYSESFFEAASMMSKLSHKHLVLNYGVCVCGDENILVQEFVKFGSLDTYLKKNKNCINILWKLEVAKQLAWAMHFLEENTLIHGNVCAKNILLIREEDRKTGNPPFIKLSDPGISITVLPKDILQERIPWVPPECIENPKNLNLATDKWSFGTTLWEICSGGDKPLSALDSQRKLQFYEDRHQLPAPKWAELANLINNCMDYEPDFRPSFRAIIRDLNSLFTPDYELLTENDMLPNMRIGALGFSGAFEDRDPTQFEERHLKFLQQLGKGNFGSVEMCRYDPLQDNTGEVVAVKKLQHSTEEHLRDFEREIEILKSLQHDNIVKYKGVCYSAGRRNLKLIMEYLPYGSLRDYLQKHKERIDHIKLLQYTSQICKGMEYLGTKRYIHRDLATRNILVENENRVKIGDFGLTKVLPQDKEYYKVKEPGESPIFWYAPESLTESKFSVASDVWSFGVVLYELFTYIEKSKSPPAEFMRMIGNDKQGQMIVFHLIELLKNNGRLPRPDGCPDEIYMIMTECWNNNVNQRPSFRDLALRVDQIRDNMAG
# Method: as §1, §2, §3
# Sequence of JAK1 (P23458 whole entry, species assumed): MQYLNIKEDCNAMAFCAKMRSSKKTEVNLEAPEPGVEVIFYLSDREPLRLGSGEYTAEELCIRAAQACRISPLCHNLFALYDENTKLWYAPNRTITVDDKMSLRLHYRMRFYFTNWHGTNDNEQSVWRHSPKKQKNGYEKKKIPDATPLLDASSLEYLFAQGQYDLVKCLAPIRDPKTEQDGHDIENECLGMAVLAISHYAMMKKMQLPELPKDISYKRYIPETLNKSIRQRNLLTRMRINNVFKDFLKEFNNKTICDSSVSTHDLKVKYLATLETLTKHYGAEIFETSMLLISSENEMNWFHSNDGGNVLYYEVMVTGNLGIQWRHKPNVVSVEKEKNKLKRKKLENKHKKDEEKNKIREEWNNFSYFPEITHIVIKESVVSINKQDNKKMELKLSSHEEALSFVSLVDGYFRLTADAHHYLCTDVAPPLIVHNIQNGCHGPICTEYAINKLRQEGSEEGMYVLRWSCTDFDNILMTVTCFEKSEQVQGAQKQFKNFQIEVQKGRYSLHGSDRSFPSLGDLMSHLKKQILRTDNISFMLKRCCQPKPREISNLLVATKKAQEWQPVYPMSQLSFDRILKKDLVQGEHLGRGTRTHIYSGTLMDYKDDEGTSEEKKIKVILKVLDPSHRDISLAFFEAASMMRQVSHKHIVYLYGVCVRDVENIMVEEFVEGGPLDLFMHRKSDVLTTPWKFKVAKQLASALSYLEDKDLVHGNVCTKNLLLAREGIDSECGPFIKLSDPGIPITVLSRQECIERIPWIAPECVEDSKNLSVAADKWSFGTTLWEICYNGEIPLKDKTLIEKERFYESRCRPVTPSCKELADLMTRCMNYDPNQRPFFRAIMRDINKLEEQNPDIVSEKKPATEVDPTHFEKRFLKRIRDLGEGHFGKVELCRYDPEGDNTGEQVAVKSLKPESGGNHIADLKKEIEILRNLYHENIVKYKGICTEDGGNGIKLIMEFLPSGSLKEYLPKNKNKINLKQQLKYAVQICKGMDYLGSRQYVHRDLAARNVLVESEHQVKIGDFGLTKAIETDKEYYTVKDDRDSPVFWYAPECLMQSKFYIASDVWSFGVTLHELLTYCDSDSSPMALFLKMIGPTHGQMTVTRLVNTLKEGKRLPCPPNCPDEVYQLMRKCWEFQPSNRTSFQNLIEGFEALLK
Compound,IC50 (JAK1) [µM],IC50 (JAK3) [µM],IC50 (TYK2) [µM],IC50 (JAK2) [µM]
"CCc1cc(O)c(F)cc1-c1cc2[nH]ncc2c(N(CCN2CCOCC2)Cc2ccccc2N(C)S(C)(=O)=O)n1 [Example 140, N-[2-({[6-(2-ethyl-5-fluoro-4-hydroxyphenyl)-1H-pyrazolo[4,3-c]pyridin-4-yl][2-(morpholin-4-yl)ethyl]amino}methyl)phenyl]-N-methylmethanesulfonamide]",0.0181,0.131,–,0.0535
"CCCCNc1nc(-c2cc(F)c(O)cc2CC(F)(F)F)nc2[nH]ncc12 [Example 154, 4-[4-(butylamino)-1H-pyrazolo[3,4-d]pyrimidin-6-yl]-2-fluoro-5-(2,2,2-trifluoroethyl)phenol]",0.0776,0.228,5.14,–
"CN(c1ccc(O)cc1CNc1nc(-c2cc(F)c(O)cc2CC(F)(F)F)nc2[nH]nc(-c3nnc(C4CCN(C(N)=O)CC4)[nH]3)c12)S(C)(=O)=O [Example 167, 4-(5-{6-[5-Fluoro-4-hydroxy-2-(2,2,2-trifluoroethyl)phenyl]-4-({5-hydroxy-2-[methyl(methylsulfonyl)amino]benzyl}amino)-1H-pyrazolo[3,4-d]pyrimidin-3-yl}-4H-1,2,4-triazol-3-yl)piperidine-1-carboxamide]",0.0041,0.0474,0.31,–
"N-ethyl-N-[2-({[6-(2-ethyl-5-fluoro-4-hydroxyphenyl)-1H-pyrazolo[4,3-c]pyridin-4-yl]amino}methyl)phenyl]ethanesulfonamide [Example 138]",–,0.0142,0.0048,0.0026
"N-benzyl-2-[6-(2-ethyl-4-hydroxyphenyl)-1H-pyrazolo[4,3-c]pyridin-4-yl]-1,2,3,4-tetrahydroiso-quinoline-5-carboxamide formate [Example 117]",–,0.0416,0.425,–
"Oc1cc(CC(F)(F)F)c(-c2nc(NCCC3CC3)c3cn[nH]c3n2)cc1F [Example 152, 4-{4-[(2-cyclopropylethyl)amino]-1H-pyrazolo[3,4-d]pyrimidin-6-yl}-2-fluoro-5-(2,2,2-trifluoroethyl)phenol]",0.0416,0.157,–,0.228
"CNC(=O)c1n[nH]c2cc(-c3cc(F)c(O)cc3CC(F)(F)F)nc(NCc3cccnc3N(C)S(C)(=O)=O)c12 [Example 53, 6-[5-fluoro-4-hydroxy-2-(2,2,2-trifluoroethyl)phenyl]-N-methyl-4-[({2-[methyl(methylsulfonyl)amino]pyridin-3-yl}methyl)amino]-1H-pyrazolo[4,3-c]pyridine-3-carboxamide]",0.0097,0.102,0.243,–
"CNC(=O)c1n[nH]c2cc(-c3cc(F)c(O)cc3CC(F)(F)F)nc(NCc3ccccc3CS(N)(=O)=O)c12 [Example 64, 6-[5-fluoro-4-hydroxy-2-(2,2,2-trifluoroethyl)phenyl]-N-methyl-4-{[2-(sulfamoylmethyl)benzyl]amino}-1H-pyrazolo[4,3-c]pyridine-3-carboxamide]",0.0033,0.0369,0.153,–
"CN(c1ccccc1CNc1nc(-c2cc(F)c(O)cc2CC(F)(F)F)nc2[nH]nc(C(N)=O)c12)S(C)(=O)=O [Example 98, 6-(5-Fluoro-4-hydroxy-2-(2,2,2-trifluoroethyl)phenyl)-4-((2-(N-methylmethylsulfonamido)benzyl)amino)-1H-pyrazolo[3,4-d]pyrimidine-3-carboxamide]",0.0049,0.0396,0.6,–
"CCc1cc(O)c(F)cc1-c1cc2[nH]nc(C(=O)NC)c2c(NCCc2ccc(O)cc2)n1 [Example 4, 6-(2-ethyl-5-fluoro-4-hydroxyphenyl)-4-{[2-(4-hydroxyphenyl)ethyl]amino}-N-methyl-1H-pyrazolo[4,3-c]pyridine-3-carboxamide]",0.0017,0.0266,0.0153,–
"CCc1cc(O)c(F)cc1-c1cc2[nH]ncc2c(N(CCc2ccc(OC)c(OC)c2)Cc2ccccc2N(C)S(C)(=O)=O)n1 [Example 129, N-[2-({[2-(3,4-dimethoxyphenyl)ethyl][6-(2-ethyl-5-fluoro-4-hydroxyphenyl)-1H-pyrazolo[4,3-c]pyridin-4-yl]amino}methyl)phenyl]-N-methylmethanesulfonamide hydrochloride]",0.0116,0.18,0.0566,–
"CCc1cc(O)ccc1-c1cc2[nH]ncc2c(N2CC(Oc3cc(C#N)ccc3Cl)C2)n1 [Example 120, 4-chloro-3-({1-[6-(2-ethyl-4-hydroxyphenyl)-1H-pyrazolo[4,3-c]pyridin-4-yl]azetidin-3-yl}oxy)benzonitrile formate]",0.0108,0.0892,–,0.128
"CNC(=O)c1n[nH]c2cc(-c3cc(F)c(O)cc3C3CC3)nc(NCc3ccccc3N(C)S(C)(=O)=O)c12 [Example 37, 6-(2-cyclopropyl-5-fluoro-4-hydroxyphenyl)-N-methyl-4-({2-[methyl(methyl-sulfonyl)amino]benzyl}amino)-1H-pyrazolo[4,3-c]pyridine-3-carboxamide]",0.005,0.052,0.169,–

# More lines, in order of falling IC50 (JAK3), values ahead:
IC50 (JAK1) [µM],IC50 (JAK3) [µM],IC50 (TYK2) [µM],IC50 (JAK2) [µM],Compound
0.0253,0.534,0.233,–,"CN(c1ccc(O)cc1CNc1nc(-c2cc(F)c(O)cc2CC(F)(F)F)cc2[nH]nc(C(N)=O)c12)S(=O)(=O)c1ccccc1 [Example 42, 6-[5-fluoro-4-hydroxy-2-(2,2,2-trifluoroethyl)phenyl]-4-({5-hydroxy-2-[methyl(phenylsulfonyl)-amino]benzyl}amino)-1H-pyrazolo[4,3-c]pyridine-3-carboxamide]"
0.0137,0.313,0.121,–,"CCN(c1ccccc1CNc1nc(-c2cc(F)c(O)cc2CC(F)(F)F)cc2[nH]nc(C(N)=O)c12)S(=O)(=O)CC [Example 82, 4-((2-(N-ethylethylsulfonamido)benzyl)amino)-6-(5-fluoro-4-hydroxy-2-(2,2,2-trifluoroethyl)phenyl)-1H-pyrazolo[4,3-c]pyridine-3-carboxamide]"
0.0258,0.293,0.999,–,"CNC(=O)c1n[nH]c2cc(-c3cc(F)c(O)cc3CC(F)(F)F)nc(NCc3nccnc3N(C)S(=O)(=O)c3ccccc3)c12 [Example 44, 6-[5-fluoro-4-hydroxy-2-(2,2,2-trifluoroethyl)phenyl]-N-methyl-4-[({3-[methyl(phenylsulfonyl)amino]pyrazin-2-yl}methyl)amino]-1H-pyrazolo[4,3-c]pyridine-3-carboxamide]"
0.078,0.248,–,0.181,"CNC(=O)c1n[nH]c2cc(-c3cc(F)c(O)cc3C3CC3)nc(NCc3cccnc3N(C)S(C)(=O)=O)c12 [Example 49, 6-(2-cyclopropyl-5-fluoro-4-hydroxyphenyl)-N-methyl-4-[({2-[methyl(methylsulfonyl)amino]pyridin-3-yl}methyl)amino]-1H-pyrazolo[4,3-c]pyridine-3-carboxamide]"
0.0676,0.148,–,0.188,"CNC(=O)c1n[nH]c2cc(-c3cc(F)c(O)cc3CC(F)(F)F)nc(NCc3cnccc3N(C)S(C)(=O)=O)c12 [Example 48, 6-[5-fluoro-4-hydroxy-2-(2,2,2-trifluoroethyl)phenyl]-N-methyl-4-[({4-[methyl(methylsulfonyl)amino]pyridin-3-yl}methyl)amino]-1H-pyrazolo[4,3-c]pyridine-3-carboxamide]"
0.0339,0.125,2.98,–,"Oc1cc(CC(F)(F)F)c(-c2nc(NCC3CC3)c3cn[nH]c3n2)cc1F [Example 151, 4-{4-[(cyclopropylmethyl)-amino]-1H-pyrazolo[3,4-d]pyrimidin-6-yl}-2-fluoro-5-(2,2,2-trifluoroethyl)phenol]"
0.0047,0.103,0.298,–,"Cc1ccc(N(C)S(C)(=O)=O)c(CNc2nc(-c3cc(F)c(O)cc3CC(F)(F)F)cc3[nH]nc(C(N)=O)c23)c1 [Example 81, 6-[5-fluoro-4-hydroxy-2-(2,2,2-trifluoroethyl)phenyl]-4-({5-methyl-2-[methyl(methylsulfonyl)-amino]benzyl}amino)-1H-pyrazolo[4,3-c]pyridine-3-carboxamide]"
0.0105,0.0511,–,–,"CS(=O)(=O)N(CCO)c1ccccc1CNc1nc(-c2cc(F)c(O)cc2CC(F)(F)F)nc2[nH]nc(C(N)=O)c12 [Example 101, 6-(5-fluoro-4-hydroxy-2-(2,2,2-trifluoroethyl)phenyl)-4-((2-(N-(2-hydroxyethyl)methylsulfonamido)benzyl)amino)-1H-pyrazolo[3,4-d]pyrimidine-3-carboxamide]"
0.0015,0.0332,0.019,–,"CCc1cc(O)c(F)cc1-c1cc2[nH]nc(C(=O)NC)c2c(NCc2ccc(O)cc2N(C)S(C)(=O)=O)n1 [Example 29, 6-(2-Ethyl-5-fluoro-4-hydroxyphenyl)-4-({4-hydroxy-2-[methyl(methylsulfonyl)amino]benzyl}amino)-N-methyl-1H-pyrazolo[4,3-c]pyridine-3-carboxamide]"
0.0002,0.0044,0.0056,–,"CCc1cc(O)ccc1-c1cc2[nH]ncc2c(NCc2ccccc2N(C)S(C)(=O)=O)n1 [Example 125, N-[2-({[6-(2-Ethyl-4-hydroxyphenyl)-1H-pyrazolo[4,3-c]pyridin-4-yl]amino}methyl)phenyl]-N-methylmethanesulfonamide hydrochloride]"

# — patent publication US9518052B2, “Pyrazolopyridines and pyrazolopyrimidines” (Pfizer Inc., priority 2014, dated 2016)
